Laboratory results from patent US20170190671A1, “BIS(ARYL)CATECHOL DERIVATIVES AS HERBICIDES” (E I DU PONT DE NEMOURS AND COMPANY, priority 2014, published 2017).

Key:
Experiment in all cases: Test D preemergence
Type in all cases: in vivo
Conditions in all cases: scale 0 to 100
[1] = system: Italian ryegrass (Lolium multiflorum)
In short: (§1)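 Plants were kept in a controlled environment for 14 to 21 days after spraying, then compared with untreated controls. Scores run from 0, no effect, to 100, complete control; preemergence pots used silt loam and postemergence pots a peat-based medium.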

[2] = system: Russian thistle (Salsola kali)
In short: as §1

[3] = system: blackgrass (Alopecurus myosuroides)
In short: as §1

[4] = system: chamomile (scentless chamomile, Matricaria inodora)
In short: as §1

[5] = system: chickweed (common chickweed, Stellaria media)
In short: as §1

[6] = system: cutleaf geranium (Geranium dissectum)
In short: as §1

[7] = system: deadnettle (henbit deadnettle, Lamium amplexicaule)
In short: as §1

[8] = system: downy bromegrass (Bromus tectorum)
In short: as §1

[9] = system: field poppy (Papaver rhoeas)
In short: as §1

[10] = system: field violet (Viola arvensis)
In short: as §1

[11] = system: galium (catchweed bedstraw, Galium aparine)
In short: as §1

[12] = system: green foxtail (Setaria viridis)
In short: as §1

[13] = system: lambsquarters (Chenopodium album)
In short: as §1

[14] = system: speedwell (bird's-eye speedwell, Veronica persica)
In short: as §1

[15] = system: spring barley (Hordeum vulgare)
In short: as §1

[16] = system: wild buckwheat (Polygonum convolvulus)
In short: as §1

[17] = system: wild mustard (Sinapis arvensis)
In short: as §1

[18] = system: wild radish (Raphanus raphanistrum)
In short: as §1

[19] = system: windgrass (Apera spica-venti)
In short: as §1

[20] = system: winter barley (Hordeum vulgare)
In short: as §1

[21] = system: winter wheat (Triticum aestivum)
In short: as §1

## Fc1cnc(Oc2c(Br)cccc2Oc2ncc(Cl)cn2)nc1 [Compound 22]
[1]; 16 g ai/ha
  Plant response rating, Ryegrass, Italian: 10
[1]; 31 g ai/ha
  Plant response rating, Ryegrass, Italian: 15
[1]; 62 g ai/ha
  Plant response rating, Ryegrass, Italian: 25
[1]; 125 g ai/ha
  Plant response rating, Ryegrass, Italian: 65
[2]; 16 g ai/ha
  Plant response rating, Russian Thistle: 0
[2]; 31 g ai/ha
  Plant response rating, Russian Thistle: 0
[2]; 62 g ai/ha
  Plant response rating, Russian Thistle: 5
[2]; 125 g ai/ha
  Plant response rating, Russian Thistle: 5
[3]; 16 g ai/ha
  Plant response rating, Blackgrass: 5
[3]; 31 g ai/ha
  Plant response rating, Blackgrass: 20
[3]; 62 g ai/ha
  Plant response rating, Blackgrass: 35
[3]; 125 g ai/ha
  Plant response rating, Blackgrass: 55
[4]; 16 g ai/ha
  Plant response rating, Chamomile: 30
[4]; 31 g ai/ha
  Plant response rating, Chamomile: 40
[4]; 62 g ai/ha
  Plant response rating, Chamomile: 55
[4]; 125 g ai/ha
  Plant response rating, Chamomile: 100
[5]; 16 g ai/ha
  Plant response rating, Chickweed: 10
[5]; 31 g ai/ha
  Plant response rating, Chickweed: 25
[5]; 62 g ai/ha
  Plant response rating, Chickweed: 100
[5]; 125 g ai/ha
  Plant response rating, Chickweed: 100
[6]; 16 g ai/ha
  Plant response rating, Geranium, Cutleaf: 25
[6]; 31 g ai/ha
  Plant response rating, Geranium, Cutleaf: 35
[6]; 62 g ai/ha
  Plant response rating, Geranium, Cutleaf: 70
[6]; 125 g ai/ha
  Plant response rating, Geranium, Cutleaf: 100
[7]; 16 g ai/ha
  Plant response rating, Deadnettle: 20
[7]; 31 g ai/ha
  Plant response rating, Deadnettle: 60
[7]; 62 g ai/ha
  Plant response rating, Deadnettle: 85
[7]; 125 g ai/ha
  Plant response rating, Deadnettle: 100
[8]; 16 g ai/ha
  Plant response rating, Bromegrass, Downy: 15
[8]; 31 g ai/ha
  Plant response rating, Bromegrass, Downy: 25
[8]; 62 g ai/ha
  Plant response rating, Bromegrass, Downy: 30
[8]; 125 g ai/ha
  Plant response rating, Bromegrass, Downy: 35
[9]; 16 g ai/ha
  Plant response rating, Field Poppy: 65
[9]; 31 g ai/ha
  Plant response rating, Field Poppy: 95
[9]; 62 g ai/ha
  Plant response rating, Field Poppy: 100
[9]; 125 g ai/ha
  Plant response rating, Field Poppy: 100
[10]; 16 g ai/ha
  Plant response rating, Field Violet: 15
[10]; 31 g ai/ha
  Plant response rating, Field Violet: 75
[10]; 62 g ai/ha
  Plant response rating, Field Violet: 95
[10]; 125 g ai/ha
  Plant response rating, Field Violet: 95
[11]; 16 g ai/ha
  Plant response rating, Galium: 60
[11]; 31 g ai/ha
  Plant response rating, Galium: 65
[11]; 62 g ai/ha
  Plant response rating, Galium: 75
[11]; 125 g ai/ha
  Plant response rating, Galium: 100
[12]; 16 g ai/ha
  Plant response rating, Foxtail, Green: 15
[12]; 31 g ai/ha
  Plant response rating, Foxtail, Green: 35
[12]; 62 g ai/ha
  Plant response rating, Foxtail, Green: 40
[12]; 125 g ai/ha
  Plant response rating, Foxtail, Green: 40
[13]; 16 g ai/ha
  Plant response rating, Lambsquarters: 20
[13]; 31 g ai/ha
  Plant response rating, Lambsquarters: 85
[13]; 62 g ai/ha
  Plant response rating, Lambsquarters: 100
[13]; 125 g ai/ha
  Plant response rating, Lambsquarters: 100
[14]; 16 g ai/ha
  Plant response rating, Speedwell: 85
[14]; 31 g ai/ha
  Plant response rating, Speedwell: 90
[14]; 62 g ai/ha
  Plant response rating, Speedwell: 100
[14]; 125 g ai/ha
  Plant response rating, Speedwell: 100
[15]; 16 g ai/ha
  Plant response rating, Barley, Spring: 0
[15]; 31 g ai/ha
  Plant response rating, Barley, Spring: 5
[15]; 62 g ai/ha
  Plant response rating, Barley, Spring: 15
[15]; 125 g ai/ha
  Plant response rating, Barley, Spring: 65
[16]; 16 g ai/ha
  Plant response rating, Buckwheat, Wild: 10
[16]; 31 g ai/ha
  Plant response rating, Buckwheat, Wild: 10
[16]; 62 g ai/ha
  Plant response rating, Buckwheat, Wild: 15
[16]; 125 g ai/ha
  Plant response rating, Buckwheat, Wild: 85
[17]; 16 g ai/ha
  Plant response rating, Mustard, Wild: 20
[17]; 31 g ai/ha
  Plant response rating, Mustard, Wild: 30
[17]; 62 g ai/ha
  Plant response rating, Mustard, Wild: 100
[17]; 125 g ai/ha
  Plant response rating, Mustard, Wild: 100
[18]; 16 g ai/ha
  Plant response rating, Radish, Wild: 45
[18]; 31 g ai/ha
  Plant response rating, Radish, Wild: 55
[18]; 62 g ai/ha
  Plant response rating, Radish, Wild: 70
[18]; 125 g ai/ha
  Plant response rating, Radish, Wild: 80
[19]; 16 g ai/ha
  Plant response rating, Windgrass: 15
[19]; 31 g ai/ha
  Plant response rating, Windgrass: 20
[19]; 62 g ai/ha
  Plant response rating, Windgrass: 25
[19]; 125 g ai/ha
  Plant response rating, Windgrass: 70
[20]; 16 g ai/ha
  Plant response rating, Barley, Winter: 0
[20]; 31 g ai/ha
  Plant response rating, Barley, Winter: 0
[20]; 62 g ai/ha
  Plant response rating, Barley, Winter: 5
[20]; 125 g ai/ha
  Plant response rating, Barley, Winter: 40
[21]; 16 g ai/ha
  Plant response rating, Wheat, Winter: 0
[21]; 31 g ai/ha
  Plant response rating, Wheat, Winter: 0
[21]; 62 g ai/ha
  Plant response rating, Wheat, Winter: 5
[21]; 125 g ai/ha
  Plant response rating, Wheat, Winter: 40
